# Values quoted from earlier work in patent publication US8486621B2, “Nucleic acid-based matrixes” (Cornell Research Foundation, Inc., priority 2005, dated 2013).
# Legend:
# [1] = system: major and minor grooves of the DNA molecules
# [2] = system: plasma glucose, insulin, and triglyceride levels; settings: in vivo
# PPAR-gamma = biological target: T1, PPAR-gamma (Homo sapiens, UniProt P37231); settings: context-specific, some cell types
# T1 sequence (P37231 1-505): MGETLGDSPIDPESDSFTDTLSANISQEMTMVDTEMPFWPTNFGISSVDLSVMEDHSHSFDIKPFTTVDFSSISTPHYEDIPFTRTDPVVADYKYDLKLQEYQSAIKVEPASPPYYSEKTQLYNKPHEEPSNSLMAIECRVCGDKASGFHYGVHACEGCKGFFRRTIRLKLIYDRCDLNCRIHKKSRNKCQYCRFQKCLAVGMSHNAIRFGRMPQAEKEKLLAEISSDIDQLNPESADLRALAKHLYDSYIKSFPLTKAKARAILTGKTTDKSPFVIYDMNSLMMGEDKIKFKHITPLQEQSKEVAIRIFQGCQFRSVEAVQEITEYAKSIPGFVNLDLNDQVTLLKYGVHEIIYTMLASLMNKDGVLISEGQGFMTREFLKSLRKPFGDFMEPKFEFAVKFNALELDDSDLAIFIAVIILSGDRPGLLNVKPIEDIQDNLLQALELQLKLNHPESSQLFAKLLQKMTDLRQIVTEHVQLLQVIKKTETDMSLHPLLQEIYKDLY
Structure (SMILES),affinity to DNA [1],"efficacy in lowering plasma glucose, insulin, and triglyceride levels [2]",potency relative to rosiglitazone [2],mode of action at PPAR-gamma (PPAR-gamma)
"CC[C@@]1(O)C(=O)OCc2c1cc1n(c2=O)Cc2cc3ccccc3nc2-1 [CPT, (S)-(+)-camptothecin]",high affinity,,,
"O=C1NC(=O)C(Cc2ccc3cc(OCc4ccccc4F)ccc3c2)S1 (stereo not shown) [netoglitazone, 5-[{6-(2-fluorobenzyl)oxy-2-naphthyl}methyl]-2,4-thiazolidinedione]",,more efficacious than pioglitazone and troglitazone,about three-fold more potent than rosiglitazone,full agonist of PPAR-gamma and as a partial agonist or antagonist in others
